This is an account of results in ChEMBL document CHEMBL1158248, “Pessoine and spinosine, two catecholic berbines from Annona spinescens” (1996).

What all share (assay type): functional
The test system of assay [1] is Trypanosoma cruzi. In words: Trypanocidal activity against Trypanosoma cruzi trypomastigote assessed as lysis of trypomastigotes at 250 ug/mL after 24 hrs relative to control.
The subject of assay [2] is Leishmania donovani. Put plainly: Antileishmanial against Leishmania donovani promastigote PP-75 assessed as total lysis of parasites after 48 hrs.
For assay [3], the system named is Leishmania donovani. In words: Antileishmanial against Leishmania donovani promastigote PP-75 assessed as lysis of parasites at 10 ug/mL after 48 hrs.
Assay [4] relates to Leishmania amazonensis. Put plainly: Antileishmanial against Leishmania amazonensis promastigote LV 79 assessed as total lysis of parasites after 48 hrs.
Assay [5] relates to Leishmania braziliensis. In words: Antileishmanial against Leishmania brasiliensis 2903 promastigote assessed as total lysis of parasites after 48 hrs.
Assay [6] has as its system Leishmania amazonensis. In words: Antileishmanial against Leishmania amazonensis promastigote LV 79 assessed as lysis of parasites at 10 ug/mL after 48 hrs.
Assay [7] has as its system Leishmania amazonensis. Put plainly: Antileishmanial against Leishmania amazonensis promastigote LV 79 assessed as lysis of parasites at 50 ug/mL after 48 hrs.
Assay [8] relates to Leishmania braziliensis. In words: Antileishmanial against Leishmania brasiliensis 2903 promastigote assessed as lysis of parasites at 100 ug/mL after 48 hrs.
In assay [9] the test system is Leishmania donovani. Put plainly: Antileishmanial against Leishmania donovani promastigote PP-75 assessed as lysis of parasites at 25 ug/mL after 48 hrs.

Regarding `COc1cc2c(cc1O)-c1c(O)c(OC)cc3c1[C@H](C2)NCC3` [NORBRACTEOLINE], in assay [1], the Activity was 62%.

As to `c1ccc2c(c1)C[C@H]1NCCc3cc4c(c-2c31)OCO4` [ANONAINE], the Activity in assay [2] was 100 µg/mL; in assay [3], 90%; in assay [1], 99%; in [4] it was 25 µg/mL; in [5], 50 µg/mL; in assay [6], 90%.

As for `O=C1c2ccccc2-c2c3c(cc4ccnc1c24)OCO3` [LIRIODENINE], the Activity in assay [2] amounted to 100 µg/mL; in [7] it was 90%; in assay [1], 50%; in assay [4] it was 100 µg/mL; in [8], 90%; in assay [9] it was 90%.

Take `CN(C)c1ccc(C(=C2C=CC(=[N+](C)C)C=C2)c2ccc(N(C)C)cc2)cc1.[Cl-]` [GENTIAN VIOLET]: the Activity in [1] turned out to be 100%.

For `COc1cc2c(cc1O)[C@@H]1Cc3cc(O)c(O)cc3CN1CC2`, in assay [1], the Activity was determined as 55%.

For `COc1cc2c3c(c1OC)C1(C=CC(=O)C=C1)C[C@@H]3NCC2` [STEPHARINE], the Activity in [1] is 65%.

As to `COc1cc2c3c(c1O)-c1cc4c(cc1CC3N(C(C)=O)CC2)OCO4` (stereo unspecified) [ACETYLNORDOMESTICINE], the Activity in assay [1] worked out at 60%.

Turning to MEGLUMINE ANTIMONATE, the Activity in [2], in assay [4] and in assay [5] was over 100 µg/mL each time.

As for `COC(=O)/C=C/c1cc(OC)c(O)c(OC)c1` [METHYL SINAPATE], the Activity in assay [1] is on record as 44%.
